# Read-outs that look alike come from different tables or passages of the source.
# System: subjects with metastatic or surgically unresectable urothelial cancer
# [1] = all-causality, 10 mg intermittent, n = 33
# [2] = treatment-emergent, all-causality, 8 mg Continuous, Regimen 3 (n = 99)
# [3] = treatment-related, 6 mg Continuous, Regimen 2 (n = 78)
# [4] = treatment-related, 8 mg Continuous Erdafitinib, Regimen 3 (n = 99)
# [5] = treatment-related, 10 mg Intermittent, Regimen 1 (n = 33)
# Procedure: Study treatment was administered on 28-day cycles. […] Patients were randomized 1:1 to 28-day cycles to the following 2 regimens until a regimen was selected for further study: Regimen 1 (10 mg once daily intermittent (7 days on/7 days); Regimen 2 (6 mg once daily continuous). Randomization was stratified according to performance status (0 to 1 vs. 2), hemoglobin value (<10 vs. ≥10 g per dl), FGFR alteration type (mutation vs. fusion), prior treatment status (chemotherapy-resistant vs. chemotherapy naïve), and disease distribution (presence or absence of visceral [liver, lung, bone]metastases). Starting dose selection was based on phase 1 efficacy and tolerability.
# Based on interim analysis and pharmacokinetic-pharmacodynamic modeling of serum phosphate levels, starting dose was increased to 8 mg per day continuous (Regimen 3). Thus, after interim analysis, this became a single-arm study. […] Treatment continued until disease progression or unacceptable adverse event(s) per investigator.
# Safety was evaluated based on clinical laboratory tests, physical exams, electrocardiograms, and ophthalmology examinations. Adverse events and abnormalities were assessed by investigator and graded per NCI CTCAE v.4.0
# Prophylactic measures were taken to minimize risk of common adverse events related to FGFR inhibition. To reduce risk of hyperphosphatemia, a low-phosphate diet was recommended for all patients (600 to 800 mg of dietary phosphate intake per day). To reduce the risk of skin effects, the application of alcohol-free emollient moisturizing cream and avoidance of unnecessary exposure to sunlight, soap, perfumed products, and hot baths was recommended. Patients were asked to keep their fingers and toes clean and nails trimmed to reduce risk of nail effects.
# Additional ophthalmology examinations were performed if clinically indicated.
compound,measurement,setting,value
"COc1cc(OC)cc(N(CCNC(C)C)c2ccc3ncc(-c4cnn(C)c4)nc3c2)c1 [erdafitinib, N-(3,5-dimethoxy-phenyl)-N′-(1-methylethyl)-N-[3-(1-methyl-1H-pyrazol-4-yl)quinoxalin-6-yl]ethane-1,2-diamine]","Paronychia, grade 1",[1],0 no.
same,"Paronychia, grade 2",[1],2 no.
same,"Paronychia, grade ≥ 3",[1],0 no.
same,"Peripheral edema, any grade",[1],5 no.
same,"Peripheral edema, grade 1",[1],1 no.
same,"Peripheral edema, grade 2",[1],4 no.
same,"Peripheral edema, grade ≥ 3",[1],0 no.
same,"Pyrexia, any grade",[1],5 no.
same,"Pyrexia, grade 1",[1],5 no.
same,"Pyrexia, grade 2",[1],0 no.
same,"Pyrexia, grade ≥ 3",[1],0 no.
same,"Retinal detachment, any grade",[1],2 no.
same,"Retinal detachment, grade 1",[1],1 no.
same,"Retinal detachment, grade 2",[1],1 no.
same,"Retinal detachment, grade ≥ 3",[1],0 no.
same,"Stomatitis, any grade",[1],16 no.
same,"Stomatitis, grade 1",[1],9 no.
same,"Stomatitis, grade 2",[1],6 no.
same,"Stomatitis, grade ≥ 3",[1],1 no.
same,"Urinary tract infection, any grade",[1],4 no.
same,"Urinary tract infection, grade 1",[1],0 no.
same,"Urinary tract infection, grade 2",[1],2 no.
same,"Urinary tract infection, grade ≥ 3",[1],2 no.
same,"Vision blurred, any grade",[1],5 no.
same,"Vision blurred, grade 1",[1],4 no.
same,"Vision blurred, grade 2",[1],1 no.
same,"Vision blurred, grade ≥ 3",[1],0 no.
same,"Vomiting, any grade",[1],9 no.
same,"Vomiting, grade 1",[1],7 no.
same,"Vomiting, grade 2",[1],2 no.
same,"Vomiting, grade ≥ 3",[1],0 no.
same,"Weight decreased, any grade",[1],3 no.
same,"Weight decreased, grade 1",[1],1 no.
same,"Weight decreased, grade 2",[1],2 no.
same,"Weight decreased, grade ≥ 3",[1],0 no.
same,CSR leading to discontinuation,in vivo,three patients
same,discontinuation due to grade 1 hyperphosphatemia,in vivo,One patient discontinued treatment
same,normalization of phosphate elevation,in vivo,normalized by cycle 5
same,retinal vein or artery occlusion,in vivo,no patient had retinal vein or artery occlusion
same,time of peak phosphate elevation after erdafitinib initiation,in vivo,6 weeks
same,death as a result of an adverse event,myocardial infarction considered unrelated to treatment,One patient died as a result of an adverse event
same,patients with grade ≥3 treatment-emergent adverse events,overall trial population,66%
same,"some type of eye disorder, regardless of relation to treatment",patients overall,54%
same,"Patients with Alopecia, Grade ≥3",[2],0 no.
same,"Patients with Decreased appetite, Grade ≥3",[2],0 no.
same,"Patients with Dry mouth, Grade ≥3",[2],0 no.
same,"Patients with Dry skin, Grade ≥3",[2],0 no.
same,"Patients with Urinary tract infection, Grade 1",[2],0 no.
same,"Patients with Vision blurred, Grade ≥3",[2],0 no.
same,"Patients with Alopecia, Any grade",[3],8 no.
same,"Patients with Alopecia, Grade 2",[3],0 no.
same,"Patients with Alopecia, Grade ≥3",[3],0 no.
same,"Patients with Conjunctivitis, Grade 2",[3],0 no.
same,"Patients with Conjunctivitis, Grade ≥3",[3],0 no.
same,"Patients with Diarrhea, Grade ≥3",[3],0 no.
same,"Patients with Dry skin, Grade ≥3",[3],0 no.
same,"Patients with Dysgeusia, Grade ≥3",[3],0 no.
same,"Patients with Hand-foot syndrome, Grade ≥3",[3],0 no.
same,"Patients with Hyperphosphatemia, Grade ≥3",[3],0 no.
same,"Patients with Lacrimation increased, Grade ≥3",[3],0 no.
same,"Patients with Nausea, Grade ≥3",[3],0 no.
same,"Patients with Onychomadesis, Grade ≥3",[3],0 no.
same,"Patients with Paronychia, Grade ≥3",[3],0 no.
same,"Patients with Retinal detachment, Grade ≥3",[3],0 no.
same,"Patients with Arrhythmia-related events, Any grade",[4],0 no.
same,"Patients with Arrhythmia-related events, Grade ≥3",[4],0 no.
same,"Patients with Alopecia, Grade ≥3",[5],0 no.
same,"Patients with Conjunctivitis, Grade ≥3",[5],0 no.
same,"Patients with Decreased appetite, Grade ≥3",[5],0 no.
same,"Patients with Diarrhea, Grade 2",[5],5 no.
same,"Patients with Dry mouth, Grade ≥3",[5],0 no.
same,"Patients with Dry skin, Grade ≥3",[5],0 no.
same,"Patients with Dysgeusia, Grade ≥3",[5],0 no.
same,"Patients with Fatigue, Grade ≥3",[5],0 no.
same,"Patients with Hand-foot syndrome, Grade 1",[5],0 no.
same,"Patients with Hand-foot syndrome, Grade ≥3",[5],0 no.
same,"Patients with Hyperphosphatemia, Grade ≥3",[5],0 no.
same,"Patients with Lacrimation increased, Grade 2",[5],0 no.
same,"Patients with Lacrimation increased, Grade ≥3",[5],0 no.
same,"Patients with Nausea, Grade ≥3",[5],0 no.
same,"Patients with Onychomadesis, Grade 2",[5],0 no.
same,"Patients with Onychomadesis, Grade ≥3",[5],0 no.
same,"Patients with Paronychia, Grade 1",[5],0 no.
same,"Patients with Paronychia, Grade ≥3",[5],0 no.
same,"Patients with Retinal detachment, Grade ≥3",[5],0 no.
same,"Patients with Vision blurred, Grade ≥3",[5],0 no.
